“Also recorded” adds a separate entry of the source. Where two headings read alike, the source gives them in different places.
Legend:
[1] = molecular target: Nsp13; conditions: cited from earlier work
[2] = molecular target: T1, SARS-CoV-2 Nsp13 (Severe acute respiratory syndrome coronavirus 2, UniProt P0DTD1); test: biochemical; conditions: for first-round screen, inhibition of Nsp13 ATPase activity (considered active): no detergent, t = 5 min, compound equimolar to ATP
T1 construct: its nonstructural protein 13 (Nsp13) remains a clinically untapped target; His6-Zb-TEV (N, cleaved yes); host or cells: E. coli BL21 (DE3)

[3] = molecular target: T1, SARS-CoV-2 Nsp13; test: biochemical; conditions: for inhibition at 50 µM: read-out: inhibition of helicase activity
[4] = molecular target: T1, SARS-CoV-2 Nsp13; format: biochemical
[5] = tested on: Vero E6, Vero ACE2-TMPRSS2 and A549 ACE2 cells; conditions: t = 22 hr
[6] = tested on: Tte UvrD helicase; format: biochemical; conditions: 3.02 nM UvrD, 1 mM ATP, 65 °C, increasing concentrations
[7] = molecular target: T2, Hepatitis C Virus (HCV) RNA helicase NS3 (Hepatitis C virus genotype 1b, UniProt Q9WMX2); format: biochemical
T2 construct: A truncated form of the Hepatitis C NS3 helicase protein; His-SUMO (N, cleaved yes); made in house; host or cells: E. coli BL21 (DE3) per the methods text
T2 sequence (Q9WMX2 1193-1657): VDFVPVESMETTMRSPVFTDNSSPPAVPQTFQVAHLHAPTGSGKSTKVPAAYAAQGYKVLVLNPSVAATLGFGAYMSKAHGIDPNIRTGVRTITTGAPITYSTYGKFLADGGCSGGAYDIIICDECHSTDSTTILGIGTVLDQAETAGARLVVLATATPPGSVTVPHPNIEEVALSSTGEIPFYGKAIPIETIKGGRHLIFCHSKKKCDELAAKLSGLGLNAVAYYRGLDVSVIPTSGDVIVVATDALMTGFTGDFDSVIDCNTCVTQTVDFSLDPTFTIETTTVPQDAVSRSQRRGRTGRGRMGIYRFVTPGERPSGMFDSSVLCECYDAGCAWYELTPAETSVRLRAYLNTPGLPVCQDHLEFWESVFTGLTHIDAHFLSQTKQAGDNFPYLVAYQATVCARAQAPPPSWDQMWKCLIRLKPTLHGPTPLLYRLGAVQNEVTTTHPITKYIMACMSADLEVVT

[8] = molecular target: T1, SARS-CoV-2 Nsp13; format: biochemical; remark: listed apart in the source
[9] = tested on: duplex-FL (labeled duplex DNA); format: binding; conditions: duplex-FL 100 nM, 10% DMSO, no protein
[10] = tested on: SARS-CoV-2; design: method as in PMID 35456026; conditions: micromolar concentrations, CFTR-expressing cells; cited from earlier work
[11] = tested on: Chinese hamster ovary (CHO) cells expressing CFTR or colon carcinoma cells; conditions: cited from earlier work
[12] = molecular target: T1, SARS-CoV-2 Nsp13; format: binding; conditions: duplex-FL 100 nM, Nsp13 1 μM

O=C1O[C@H]2[C@@H]3OC(=O)c4cc(O)c(O)c(O)c4-c4c(O)c(O)c5oc(=O)c6c(c(O)c(O)c7oc(=O)c4c5c76)-c4c(cc(O)c(O)c4O)C(=O)OC[C@H]3OC(O)[C@@H]2OC(=O)c2cc(O)c(O)c(O)c2-c2c1cc(O)c(O)c2O (mixture of isomers) [punicalagin]
Kd [1]: ~0.02 µM

C[C@H](NC(=O)Cc1cc(F)cc(F)c1)C(=O)N[C@@H]1C(=O)N(C)c2ccccc2-c2ccccc21 [dibenzazepine]
ATPase inhibition on titration in the presence of detergent ([2]; Tween-20, up to high micromolar concentrations): no inhibition
first-round screen, inhibition of Nsp13 ATPase activity (considered active) [2]: active

C=CCn1c(CSc2ccccc2[N+](=O)[O-])n[nH]c1=S [SSYA10-001]
inhibition of helicase activity [3]: inhibited

Cc1ccc(COc2c(Br)cc(CNc3ccc(Oc4ccccc4)cc3)cc2Br)cc1 [Analog 5]
inhibition at 50 µM [3]: < 25%

O=C(Cn1cccc1-c1nc(-c2ccc(F)c(Br)c2)no1)NCc1ccc(F)cc1 [Analog 6]
inhibition at 50 µM [3]: < 25%

O=C(NCc1ccc(Oc2ccccc2)cc1)c1nc(-c2cc(Br)c(O)c(Br)c2)no1 [IOWH-032]
mode of helicase inhibition with respect to nucleic acid substrate [4]: mixed inhibition
reduction in cell viability ([5]; 4 μM, across all mammalian cell lines tested): ~50%
effect on UvrD ATPase activity (ATP consumption) [6]: is not affected; also recorded: still demonstrated ATPase activity
concentration above which NS3 ATPase activity decreases ([7]; 250 nM NS3, 250 μM ATP): exceed 100 µM
sensitivity of NS3 ATPase activity ([7]; mid-micromolar concentrations of compound): nearly insensitive
mode of ATPase inhibition with respect to ATP [8]: uncompetitive
interaction with duplex-FL probe alone [9]: does not interact with probe alone; also recorded: no direct interaction
reduction of SARS-CoV-2 viral loads compared to untreated cells [10]: > 2 log10
toxicity [11]: not toxic

Cc1ccc(-c2cc(C(=O)NCc3ccc(Oc4ccccc4)cc3)no2)cc1C [Analog 2]
toxicity against infection cell lines ([5]; up to 20 µM): did not show toxicity
inhibition of helicase activity ([3]; 50 μM analog, 3.12 nM Nsp13, 0.01% Tween-20): no inhibition
displacement of duplex-FL probe [12]: no displacement of probe

CNC(=O)c1cc(COc2nnc(Nc3ccc(Cl)cc3)c3ccoc23)ccn1 [telatinib]
IC50 ([2]; 25 nM Nsp13, 0.01% Tween-20, read-out: ATPase inhibition IC50): ~114 µM
first-round screen, inhibition of Nsp13 ATPase activity (considered active) [2]: active
IC50 [3]: 20.4 ± 1.5 µM

O=C(NCc1ccc(Cn2cc(Cl)cn2)cc1)c1nc(-c2ccc(C(F)(F)F)cc2)no1 [Analog 1]
IC50 [3]: 131 ± 53 µM
fold higher helicase IC50 than IOWH-032 ([3]; 3.12 nM Nsp13, 0.01% Tween-20): > 10 fold
inhibition at 50 µM [3]: > 25%
